#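 Step 1: Grow cells in 96-well plates. Step 2: Expose to compound for 48 hours at 5 concentrations. Step 3: Interpolate endpoints linearly; if unreached, use highest concentration. GI50: concentration for 50% inhibition of growth.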 Calls of active or inactive are those of the source. Rule as the data show it: active = GI50 up to about 1.1 µM and inactive = higher.
# Experiments:
# Assay in all cases: NCI tumour cell line growth inhibition, 48 h
# EKVX = tested on: EKVX
# HT-29 = tested on: HT-29
# LOX IMVI = tested on: LOX IMVI
# SK-MEL-2 = tested on: SK-MEL-2
# RXF 393 = tested on: RXF 393
# HCC 2998 = tested on: HCC 2998
# SR = tested on: SR
# A549 = tested on: A549
# OVCAR-3 = tested on: OVCAR-3
# Malme-3M = tested on: Malme-3M
# Hs-578T = tested on: Hs-578T
# M14 = tested on: M14
# NCI-H23 = tested on: NCI-H23
# MDA-MB-231 = tested on: MDA-MB-231
# SN12C = tested on: SN12C
# OVCAR-5 = tested on: OVCAR-5
# MDA-MB-435 = tested on: MDA-MB-435
# SW-620 = tested on: SW-620
# BT-549 = tested on: BT-549
# COLO 205 = tested on: COLO 205
# RPMI-8226 = tested on: RPMI-8226
# IGROV-1 = tested on: IGROV-1
# SK-MEL-5 = tested on: SK-MEL-5
# UACC-62 = tested on: UACC-62
# TK-10 = tested on: TK-10
# CCRF-CEM = tested on: CCRF-CEM
# NCI-H522 = tested on: NCI-H522
# ACHN = tested on: ACHN
# A498 = tested on: A498
# HCT-15 = tested on: HCT-15
# NCI-H226 = tested on: NCI-H226
# OVCAR-8 = tested on: OVCAR-8
# KM12 = tested on: KM12
# HCT-116 = tested on: HCT-116
# SF-268 = tested on: SF-268
# SK-MEL-28 = tested on: SK-MEL-28
# DU-145 = tested on: DU-145
# MCF7 = tested on: MCF7
# SK-OV-3 = tested on: SK-OV-3
# SF-295 = tested on: SF-295
# UACC-257 = tested on: UACC-257
# K562 = tested on: K562
# SNB-19 = tested on: SNB-19
# 786-0 = tested on: 786-0
# SNB-75 = tested on: SNB-75
# NCI/ADR-RES = tested on: NCI/ADR-RES
# HL-60 = tested on: HL-60
# U-251 = tested on: U-251
# OVCAR-4 = tested on: OVCAR-4
# MDA-N = tested on: MDA-N
# HOP-62 = tested on: HOP-62
# T47D = tested on: T47D
# PC-3 = tested on: PC-3
# UO-31 = tested on: UO-31
# CAKI-1 = tested on: CAKI-1
# NCI-H460 = tested on: NCI-H460
# SF-539 = tested on: SF-539
# HOP-92 = tested on: HOP-92
# MOLT-4 = tested on: MOLT-4
smiles,measurement,setting,value
CC(=O)O[C@H]1CC[C@@]2(C)[C@@H](CC[C@@H]3[C@@H]2CC(=O)[C@@]2(C)[C@H]3C[C@@H]3CC(C)=CC(=O)[C@@H]32)C1,GI50,EKVX,28.9 µM (inactive)
same,GI50,HT-29,31 µM (inactive)
same,GI50,LOX IMVI,> 100 µM (inactive)
same,GI50,SK-MEL-2,> 100 µM (inactive)
same,GI50,RXF 393,30.2 µM (inactive)
same,GI50,HCC 2998,71.3 µM (inactive)
same,GI50,SR,23.5 µM (inactive)
same,GI50,A549,62.4 µM (inactive)
same,GI50,OVCAR-3,81.8 µM (inactive)
same,GI50,Malme-3M,40.6 µM (inactive)
same,GI50,Hs-578T,20.7 µM (inactive)
same,GI50,M14,29.7 µM (inactive)
same,GI50,NCI-H23,> 100 µM (inactive)
same,GI50,MDA-MB-231,> 100 µM (inactive)
same,GI50,SN12C,41 µM (inactive)
same,GI50,OVCAR-5,> 100 µM (inactive)
same,GI50,MDA-MB-435,58.6 µM (inactive)
same,GI50,SW-620,> 100 µM (inactive)
same,GI50,BT-549,28.3 µM (inactive)
same,GI50,COLO 205,58.5 µM (inactive)
same,GI50,RPMI-8226,16 µM (inactive)
same,GI50,IGROV-1,> 100 µM (inactive)
same,GI50,SK-MEL-5,40.9 µM (inactive)
same,GI50,UACC-62,64.7 µM (inactive)
same,GI50,TK-10,> 100 µM (inactive)
same,GI50,CCRF-CEM,36.1 µM (inactive)
same,GI50,NCI-H522,39.5 µM (inactive)
same,GI50,ACHN,66.7 µM (inactive)
same,GI50,A498,> 100 µM (inactive)
same,GI50,HCT-15,98.2 µM
same,GI50,NCI-H226,> 100 µM (inactive)
same,GI50,OVCAR-8,59.7 µM (inactive)
same,GI50,KM12,57 µM (inactive)
same,GI50,HCT-116,49.5 µM (inactive)
same,GI50,SF-268,36.2 µM (inactive)
same,GI50,SK-MEL-28,> 100 µM (inactive)
same,GI50,DU-145,53.8 µM (inactive)
same,GI50,MCF7,58.3 µM (inactive)
same,GI50,SK-OV-3,> 100 µM (inactive)
same,GI50,SF-295,56.1 µM (inactive)
same,GI50,UACC-257,62.1 µM (inactive)
same,GI50,K562,40.5 µM (inactive)
same,GI50,SNB-19,> 100 µM (inactive)
same,GI50,786-0,39.5 µM (inactive)
same,GI50,SNB-75,30.1 µM (inactive)
same,GI50,NCI/ADR-RES,59 µM (inactive)
same,GI50,HL-60,5.04 µM (inactive)
same,GI50,U-251,> 100 µM (inactive)
same,GI50,OVCAR-4,56.5 µM (inactive)
same,GI50,MDA-N,43.1 µM (inactive)
same,GI50,HOP-62,55.8 µM (inactive)
same,GI50,T47D,40 µM (inactive)
same,GI50,PC-3,44.1 µM (inactive)
same,GI50,UO-31,23.2 µM (inactive)
same,GI50,CAKI-1,> 100 µM (inactive)
Brc1ccc(-c2cn3ccncc3n2)cc1,GI50,EKVX,63.8 µM (inactive)
same,GI50,HT-29,> 100 µM (inactive)
same,GI50,LOX IMVI,> 100 µM (inactive)
same,GI50,SK-MEL-2,> 100 µM (inactive)
same,GI50,RXF 393,> 100 µM (inactive)
same,GI50,SR,> 100 µM (inactive)
same,GI50,A549,> 100 µM (inactive)
same,GI50,OVCAR-3,> 100 µM (inactive)
same,GI50,Malme-3M,> 100 µM (inactive)
same,GI50,Hs-578T,> 100 µM (inactive)
same,GI50,M14,> 100 µM (inactive)
same,GI50,NCI-H23,> 100 µM (inactive)
same,GI50,NCI-H460,> 100 µM (inactive)
same,GI50,MDA-MB-231,> 100 µM (inactive)
same,GI50,SN12C,> 100 µM (inactive)
same,GI50,OVCAR-5,> 100 µM (inactive)
same,GI50,MDA-MB-435,> 100 µM (inactive)
same,GI50,BT-549,> 100 µM (inactive)
same,GI50,COLO 205,> 100 µM (inactive)
same,GI50,RPMI-8226,> 100 µM (inactive)
same,GI50,IGROV-1,> 100 µM (inactive)
same,GI50,SF-539,> 100 µM (inactive)
same,GI50,SK-MEL-5,> 100 µM (inactive)
same,GI50,UACC-62,> 100 µM (inactive)
same,GI50,TK-10,> 100 µM (inactive)
same,GI50,CCRF-CEM,> 100 µM (inactive)
same,GI50,NCI-H522,> 100 µM (inactive)
same,GI50,ACHN,> 100 µM (inactive)
same,GI50,A498,> 100 µM (inactive)
same,GI50,HCT-15,> 100 µM
same,GI50,NCI-H226,> 100 µM (inactive)
same,GI50,OVCAR-8,> 100 µM (inactive)
same,GI50,KM12,> 100 µM (inactive)
same,GI50,HCT-116,> 100 µM (inactive)
same,GI50,SF-268,> 100 µM (inactive)
same,GI50,SK-MEL-28,> 100 µM (inactive)
same,GI50,DU-145,> 100 µM (inactive)
same,GI50,MCF7,> 100 µM (inactive)
same,GI50,SK-OV-3,> 100 µM (inactive)
same,GI50,SF-295,> 100 µM (inactive)
same,GI50,UACC-257,14.9 µM (inactive)
same,GI50,K562,> 100 µM (inactive)
same,GI50,SNB-19,> 100 µM (inactive)
same,GI50,786-0,> 100 µM (inactive)
same,GI50,SNB-75,> 100 µM (inactive)
same,GI50,HOP-92,> 100 µM (inactive)
same,GI50,NCI/ADR-RES,> 100 µM (inactive)
same,GI50,U-251,> 100 µM (inactive)
same,GI50,OVCAR-4,> 100 µM (inactive)
same,GI50,MDA-N,> 100 µM (inactive)
same,GI50,HOP-62,> 100 µM (inactive)
same,GI50,MOLT-4,60.3 µM (inactive)
same,GI50,T47D,> 100 µM (inactive)
same,GI50,PC-3,> 100 µM (inactive)
same,GI50,UO-31,> 100 µM (inactive)
same,GI50,CAKI-1,> 100 µM (inactive)

# — ChEMBL document CHEMBL1201862, “PubChem BioAssay data set” (2004)
